Assay results as given in article PMC5418314, “First-in-human phase I study of SOR-C13, a TRPV6 calcium channel inhibitor, in patients with advanced solid tumors” (Investigational New Drugs, 2017).
Ends that are not written are not given here.

Columns and labels:
breast cancer xenograft = assay: xenograft model of breast cancer, tumor inhibition; assay type: in vivo
ovarian cancer xenograft = assay: xenograft model of ovarian cancer, tumor inhibition; assay type: in vivo
TRPV6 = details: read-out: IC50, inhibition of TRPV6; cited from earlier work
Text: SOR-C13 is a short segment (13-mer) from the C-terminus of a paralytic peptide soricidin (accession number P0C2P6) discovered in the saliva of the Northern Short-tailed shrew (Blarina brevicauda), abundant in eastern North America. While not paralytic themselves, C-series peptides blocked calcium uptake by ovarian cancer cells in in vitro studies. […] TRPV6 is predominantly found in non-excitable tissues wi ...

CA 19–9 = CA 19–9 tumor biomarker levels in pancreatic cancer patients; assay type: in vivo, human
Procedure: (§1) Anti-tumor activity was evaluated by radiologic assessment of tumor size according to the New Response Evaluation Criteria in Solid Tumors (RECIST), Revised Guideline Version 1.1 [20] and changes in tumor-specific biomarker levels. The baseline radiologic assessment was performed ≤30 days prior to the first SOR-C13 dose. Tumor response was assessed after two cycles of treatment (between Days 15–21 of Cycle 2). For patients receiving additional cycles, tumor response was assessed after every 2 additional cycles, or earlier at the investigator’s discretion or as required by standard of care at the site.
For pharmacodynamic information changes of the plasma biomarkers ‘cleaved cytokeratin 18’, (ccK18) and TRPV6 mRNA levels, in response to treatment, were evaluated. Blood samples for the assessment of ccK18, TRPV6 mRNA or other tumor-specific biomarkers were collected within 24 h prior to the first infusion of SOR-C13, on Day 1 of Cycle 2, once between Days 15–21 of Cycle 2, during additional cycles, and at the Month 1 follow-up. We set a low basal level of ccK18 as 250 U/L as a cut-off point representing the 95th percentile median of healthy volunteers (Peviva M30 Apoptosense ELISA assay product literature).

[1] = test system: advanced solid tumors of epithelial origin; assay: Phase I anti-tumor activity (RECIST 1.1); assay type: in vivo, human
Procedure: as §1

KEFLHPSKVDLPR [SOR-C13]
inhibition of tumors (breast cancer xenograft): effective
inhibition of tumors (ovarian cancer xenograft): effective
IC50 (TRPV6): 14 nM
decrease in CA 19–9 (CA 19–9; pancreatic cancer patient treated at 6.25 mg/kg, after cycle 2): 29%
decrease in CA 19–9 (CA 19–9; pancreatic cancer patient, 6.2 mg/kg, after cycle 4): 55%
patients with stable disease after two cycles ([1]; 1.375 mg/kg, 90-min infusion): two out of the three patients
patients with stable disease ([1]; 12 of 22 evaluable patients, after two cycles, RECIST 1.1): 54.5%
patients with stable disease after 2 cycles ([1]; ovarian cancer (OVca) patients): two of the four
duration of stable disease ([1]; pancreatic cancer patient, 2.75 mg/kg, 90-min infusions): four cycles
duration of stable disease ([1]; pancreatic cancer patient, 6.2 mg/kg, 90-min infusions): over 10 cycles
reduction from baseline in the sum of tumor diameters ([1]; pancreatic cancer patient, 6.2 mg/kg, 90-min infusions, after 4 cycles): 27%
duration of stable disease (cycles received) ([1]; patient with adenoid cystic carcinoma of the tongue, 4.13 mg/kg): 18 cycles
